Assay results from ChEMBL document CHEMBL1687830, “Evaluation of ceftazidime and NXL104 in two murine models of infection due to KPC-producing Klebsiella pneumoniae” (2011).
Converted amounts (≈) assume the structure as drawn.

Legend:
Assay type in all cases: functional
Klebsiella pneumoniae [1] = experiment: Antimicrobial activity against carbapenemases KPC-producing Klebsiella pneumoniae VA-361 infected in sc dosed CD-1 mouse in presence of 4 ug/ml Tazobactam beta-lactamase inhibitor
Klebsiella pneumoniae [2] = experiment: Antimicrobial activity against carbapenemases KPC-producing Klebsiella pneumoniae VA-361 infected in sc dosed CD-1 mouse in presence of 4 ug/ml cavulanate beta-lactamase inhibitor
Klebsiella pneumoniae [3] = experiment: Antimicrobial activity against carbapenemases KPC-producing Klebsiella pneumoniae VA-361 infected in sc dosed CD-1 mouse
Klebsiella pneumoniae [4] = experiment: Antimicrobial activity against carbapenemases KPC-producing Klebsiella pneumoniae VA-406 infected in sc dosed CD-1 mouse in presence of 4 ug/ml Tazobactam beta-lactamase inhibitor
Klebsiella pneumoniae [5] = experiment: Antimicrobial activity against carbapenemases KPC-producing Klebsiella pneumoniae VA-406 infected in sc dosed CD-1 mouse in presence of 4 ug/ml cavulanate beta-lactamase inhibitor
Klebsiella pneumoniae [6] = experiment: Antimicrobial activity against carbapenemases KPC-producing Klebsiella pneumoniae VA-406 infected in sc dosed CD-1 mouse
Klebsiella pneumoniae [7] = experiment: Antimicrobial activity against carbapenemases KPC-producing Klebsiella pneumoniae VA-361 infected in sc dosed CD-1 mouse in presence of 1 ug/ml NXL104 beta-lactamase inhibitor
Klebsiella pneumoniae [8] = experiment: Antimicrobial activity against carbapenemases KPC-producing Klebsiella pneumoniae VA-361 infected in sc dosed CD-1 mouse in presence of 2 ug/ml NXL104 beta-lactamase inhibitor
Klebsiella pneumoniae [9] = experiment: Antimicrobial activity against carbapenemases KPC-producing Klebsiella pneumoniae VA-361 infected in sc dosed CD-1 mouse in presence of 4 ug/ml NXL104 beta-lactamase inhibitor
Klebsiella pneumoniae [10] = experiment: Antimicrobial activity against carbapenemases KPC-producing Klebsiella pneumoniae VA-406 infected in sc dosed CD-1 mouse in presence of 1 ug/ml NXL104 beta-lactamase inhibitor
Klebsiella pneumoniae [11] = experiment: Antimicrobial activity against carbapenemases KPC-producing Klebsiella pneumoniae VA-406 infected in sc dosed CD-1 mouse in presence of 2 ug/ml NXL104 beta-lactamase inhibitor
Klebsiella pneumoniae [12] = experiment: Antimicrobial activity against carbapenemases KPC-producing Klebsiella pneumoniae VA-406 infected in sc dosed CD-1 mouse in presence of 4 ug/ml NXL104 beta-lactamase inhibitor
Klebsiella pneumoniae [13] = experiment: (§1) Antimicrobial activity against carbapenemases KPC-producing Klebsiella pneumoniae VA-361 infected in CD-1 mouse thigh infection model assessed as change in log10 CFU reduction per thigh treated 1.5 hr post infection at >=1024:256 mg/kg, sc compound to NXL104 beta-lactamase inhibitor ratio after 24 hrs by acute lethal septicemia analysis (reference value: 8.93 log10CFU/thigh)
Klebsiella pneumoniae [14] = experiment: as §1, with “VA-406” for “VA-361”, “>=8:2” for “>=1024:256”, “8.67” for “8.93”
Klebsiella pneumoniae [15] = experiment: as §1, with “2048” for “>=1024:256”, “sc” for “sc compound to NXL104 beta-lactamase inhibitor ratio”; conditions: route subcutaneous
Klebsiella pneumoniae [16] = experiment: as §1, with “VA-406” for “VA-361”, “2048” for “>=1024:256”, “sc” for “sc compound to NXL104 beta-lactamase inhibitor ratio”, “8.67” for “8.93”; conditions: route subcutaneous
Klebsiella pneumoniae [17] = experiment: as §1, with “1024” for “>=1024:256”, “sc” for “sc compound to NXL104 beta-lactamase inhibitor ratio”; conditions: route subcutaneous
Klebsiella pneumoniae [18] = experiment: as §1, with “VA-406” for “VA-361”, “1024” for “>=1024:256”, “sc” for “sc compound to NXL104 beta-lactamase inhibitor ratio”, “8.67” for “8.93”; conditions: route subcutaneous

SMILES | MIC (Klebsiella pneumoniae [1]) [µg/mL] | MIC (Klebsiella pneumoniae [2]) [µg/mL] | MIC (Klebsiella pneumoniae [3]) [µg/mL] | MIC (Klebsiella pneumoniae [4]) [µg/mL] | MIC (Klebsiella pneumoniae [5]) [µg/mL] | MIC (Klebsiella pneumoniae [6]) [µg/mL] | MIC (Klebsiella pneumoniae [7]) [µg/mL] | MIC (Klebsiella pneumoniae [8]) [µg/mL] | MIC (Klebsiella pneumoniae [9]) [µg/mL] | MIC (Klebsiella pneumoniae [10]) [µg/mL] | MIC (Klebsiella pneumoniae [11]) [µg/mL] | MIC (Klebsiella pneumoniae [12]) [µg/mL] | log10cfu (Klebsiella pneumoniae [13]) | log10cfu (Klebsiella pneumoniae [14]) | log10cfu (Klebsiella pneumoniae [15]) | log10cfu (Klebsiella pneumoniae [16]) | log10cfu (Klebsiella pneumoniae [17]) | log10cfu (Klebsiella pneumoniae [18])
C[C@@H](O)[C@H]1C(=O)N2C(C(=O)O)=C(SCCNC=N)C[C@H]12 [IMIPENEM ANHYDROUS] | 4 | 2 | 4 (≈ 13.4 µM) | 256 | 128 | 256 (≈ 855 µM) | – | – | – | – | – | – | – | – | – | – | – | –
C[C@@H](O)[C@H]1C(=O)N2C(C(=O)O)=C(S[C@@H]3CN[C@H](C(=O)N(C)C)C3)[C@H](C)[C@H]12 [MEROPENEM] | 4 | 2 | 4 (≈ 10.4 µM) | 128 | 128 | 256 (≈ 668 µM) | – | – | – | – | – | – | – | – | – | – | – | –
CCN1CCN(C(=O)N[C@@H](C(=O)N[C@@H]2C(=O)N3[C@@H]2SC(C)(C)[C@@H]3C(=O)O)c2ccccc2)C(=O)C1=O [PIPERACILLIN] | ≥ 512 | – | ≥ 512 | ≥ 512 | – | ≥ 512 | 32 | 8 | ≤ 0.06 | 16 | 8 | 0.5 | -1.76 | 2.93 | -0.34 | 0.03 | -0.32 | 0.25
